Measured values as given in the supplement of paper PMC10307832.

compound: CC(C)CCN1c2nc(Nc3cc(F)c(O)c(F)c3)ncc2N(C)C(=O)C1C [BI-D1870] + CS(=O)(=O)N1CCN(Cc2cc3nc(-c4cccc5[nH]ncc45)nc(N4CCOCC4)c3s2)CC1 [Pictilisib] (partner 1 µM); assay: relative viability (nuclei count vs DMSO), 5 days (fraction); higher = more cells survive; conditions: first compound 0.4 µM
In short: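 Nuclei were stained with Hoechst during a one-step fixation (final 0.05% Triton X-100, 1% formaldehyde, 1 ug/ml Hoechst) carried out 5 days after dosing, then counted on 4× images. The cells, lung cancer lines in 1536-well plates, had been dosed by pin tool the day after seeding with one drug alone or a fixed anchor-drug dose plus five library-drug doses (not always all listed) in √10 steps. Relative viability is the nuclei count in treated wells divided by that in vehicle wells, and each value is the median of duplicate plates.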

Cell Line	relative viability
NCI-H2228	0.448
NCI-H1792	0.24
NCI-H1355	0.398
NCI-H3122	0.604
NCI-H1437	0.415
NCI-H1755	0.469
NCI-H2023	0.221
HCC-15	0.674
NCI-H1793	0.227
PC-14	0.557
EKVX	0.412
LC-2-ad	0.498
NCI-H1563	0.604
NCI-H1944	0.332
NCI-H1975	0.288
RERF-LC-KJ	0.451
ABC-1	0.633
NCI-H358	0.338
NCI-H650	0.87
PC-3 [JPC-3]	0.699

same assay, conditions: first compound 1.265 µM

Cell Line	relative viability
201T	0.684
NCI-H1915	0.897
HCC-827	1.14
LXF-289	0.745
NCI-H23	0.421
NCI-H1299	0.514
NCI-H647	0.512
CAL-12T	0.657
NCI-H1651	0.516
EPLC-272H	0.312
NCI-H2228	0.468
NCI-H1792	0.297
NCI-H1355	0.504
NCI-H3122	0.653
NCI-H1437	0.408
NCI-H1755	0.431
NCI-H2023	0.235
HCC-15	0.79
NCI-H1793	0.347
PC-14	0.537
EKVX	0.453
LC-2-ad	0.0168
NCI-H1563	0.693
NCI-H1944	0.377
NCI-H1975	0.299
RERF-LC-KJ	0.597
ABC-1	0.744
NCI-H358	0.365
NCI-H650	0.811
PC-3 [JPC-3]	0.793

same assay, conditions: first compound 4 µM

Cell Line	relative viability
201T	0.642
NCI-H1915	0.671
HCC-827	0.91
LXF-289	0.665
NCI-H23	0.26
NCI-H1299	0.19
NCI-H647	0.34
CAL-12T	0.336
NCI-H1651	0.551
EPLC-272H	0.243
NCI-H2228	0.225
NCI-H1792	0.227
NCI-H1355	0.323
NCI-H3122	0.62
NCI-H1437	0.389
NCI-H1755	0.35
NCI-H2023	0.153
HCC-15	0.509
NCI-H1793	0.288
PC-14	0.438
EKVX	0.403
LC-2-ad	0.474
NCI-H1563	0.681
NCI-H1944	0.345
